Data as given in patent publication US20090081318A1, “TREATMENT OF NEUROADS USING INHIBITORS OF GLYCOGEN SYNTHASE KINASE (GSK)-3” (priority 2005, published 2009).
Values joined by “and” are separate entries in the source; they are usually repeats but may differ in a detail not shown here. Identical values can stand only once.

How the values were obtained:
GSK-3 [1] = conditions: cited from earlier work
CDK1 = CDK1 (Homo sapiens, UniProt P06493); conditions: cited from earlier work
GSK-3 [2] = conditions: acting primarily through beta3-adrenoreceptors; similar extent as insulin; Moule et al. 1997; cited from earlier work
[3] = tested on: subjects with HIV-associated cognitive impairment; assay: Investigator Clinical Global Impression; conditions: human, in vivo
Description: (§1) Tolerability was assessed based on the proportion of subjects able to complete the 10-week study at the original dose of study medication. Safety measures included the occurrences of adverse events and abnormal results on laboratory tests. Measures of efficacy included changes from baseline in: neuropsychological test scores; the Investigator Clinical Global Impression; MRI indices; functioning; and mood. The study was designed to provide approximately 80% power to detect a 45% difference in tolerability (i.e. 95% versus 50%) between the placebo and VPA groups using a one-sided Fisher's exact test at the 5% level of significance.

HIV = assay: Plasma HIV viral load; assay type: in vivo; conditions: individual subjects on VPA (three subjects; the first changed antiretroviral therapy); listed as VPA
Description: (§2) Twenty-two eligible subjects, six without cognitive impairment and 16 with cognitive impairment, were enrolled and block-randomized within impairment strata to receive 250 mg of VPA or placebo twice daily. Cognitive impairment was defined as performance at least one standard deviation below the mean on two or more neuropsychological tests, or at least two standard deviations below the mean on one neuropsychological test, using normative data previously applied by the Dana cohort (Dana 1996). Subjects were evaluated at 2, 6, and 10 weeks for adverse clinical and laboratory experiences. Neuropsychological evaluations (see Table 3) were performed at screening, week 6, and week 10 along with global assessments of functioning (subject and investigator), the Fatigue Severity Scale, and the Center for Epidemiologic Studies Depression Scale. A neurological examination and CD4+/CD8+ counts were performed at screening and week 10, while plasma HIV viral load was measured at baseline and week 10.

[4] = design: species or system human; conditions: in vivo
Description: as §2
Tolerability was assessed based on the proportion of subjects able to complete the 10-week study at the original dose of study medication. Safety measures included the occurrences of adverse events and abnormal results on laboratory tests. […]

[5] = tested on: subjects with HIV-associated cognitive impairment; assay: Neuropsychological evaluations, VPA adjunctive therapy trial; assay type: in vivo, human
Description: as §2, §1
Changes from baseline were assessed using paired t-tests. Comparisons between treatment arms were based on unequal-variance two-sample t-tests for continuous variables, and Fisher's Exact Tests for categorical variables. Comparisons between treatment arms were adjusted for baseline values using Analysis of Covariance. Primary statistical analyses were performed according to the intention-to-treat principle, using the last-observation-carried-forward imputation strategy for subjects who prematurely dropped out of the study. Secondary analyses excluded such subjects.

[6] = impaired participants, n = 9, VPA 250 mg twice daily
[7] = impaired participants, valproic acid minus placebo mean change to week 10, adjusted for baseline, negative = better on valproic acid
[8] = impaired participants, valproic acid minus placebo mean change to week 10, adjusted for baseline, positive = better on valproic acid

Chain of CDK1 (P06493 whole entry, species assumed): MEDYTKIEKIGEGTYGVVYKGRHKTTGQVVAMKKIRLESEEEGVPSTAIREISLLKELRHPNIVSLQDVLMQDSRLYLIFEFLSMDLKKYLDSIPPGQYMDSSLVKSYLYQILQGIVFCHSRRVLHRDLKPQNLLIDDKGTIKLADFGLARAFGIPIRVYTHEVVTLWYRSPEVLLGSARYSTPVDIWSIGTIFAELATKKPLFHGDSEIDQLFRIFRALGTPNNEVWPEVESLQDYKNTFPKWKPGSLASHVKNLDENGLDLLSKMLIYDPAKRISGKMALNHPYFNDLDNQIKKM
Chain of CDK1 (P14635 whole entry partner, species assumed): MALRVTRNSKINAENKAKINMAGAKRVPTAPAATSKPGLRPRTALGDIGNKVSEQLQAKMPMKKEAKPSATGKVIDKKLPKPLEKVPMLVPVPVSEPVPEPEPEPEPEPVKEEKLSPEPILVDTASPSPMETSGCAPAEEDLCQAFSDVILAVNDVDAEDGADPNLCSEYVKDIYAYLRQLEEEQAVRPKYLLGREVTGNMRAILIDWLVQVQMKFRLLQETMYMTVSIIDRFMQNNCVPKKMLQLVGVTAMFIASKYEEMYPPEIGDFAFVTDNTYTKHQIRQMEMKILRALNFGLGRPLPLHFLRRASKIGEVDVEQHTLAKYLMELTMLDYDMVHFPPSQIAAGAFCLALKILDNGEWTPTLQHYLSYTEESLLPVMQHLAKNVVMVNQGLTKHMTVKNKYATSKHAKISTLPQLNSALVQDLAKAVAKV

[Be+2] [Beryllium]
IC50 (GSK-3 [1]; read-out: Inhibition potency IC50): 6 µM | IC50 (CDK1): 50 µM

CC(C)NCC(O)c1ccc(O)c(O)c1 (centres unmarked) [Isoproterenol]
Decrease of GSK-3 activity (GSK-3 [2]): approximately 50%

CCCC(CCC)C(=O)O [Valproic Acid, Valproic acid]
Investigator clinical global impression, placebo vs VPA group [3]: No significant difference | Change in plasma HIV RNA from baseline to week 10 (HIV): 33,300 to 316 copies/ml and 100,000 to 93,900 copies/ml and 32,500 to 24,700 copies/ml | Adverse experience [4]: mild new onset of acid reflux | Increase in liver function tests [4]: < 2.5 times the upper limit of normal | Composite Neuropsychological Z-score, mean change from baseline to week 10 [5, 6]: 4.56 | Digit Symbol, mean change from baseline to week 10 [5, 6]: 6.56 | Grooved Pegboard Dominant Hand, mean change from baseline to week 10 [5, 6]: -9.33 s | Grooved Pegboard Nondominant Hand, mean change from baseline to week 10 [5, 6]: -6.44 s | Mean Reaction Time Choice, mean change from baseline to week 10 [5, 6]: -43.38 ms | Mean Reaction Time Sequential, mean change from baseline to week 10 [5, 6]: -8.63 ms | Rey Auditory Verbal Memory Correct Recognition, mean change from baseline to week 10 [5, 6]: 0.11 | Rey Auditory Verbal Memory Delayed Recall, mean change from baseline to week 10 [5, 6]: 1.11 | Rey Auditory Verbal Memory Recall after Interference, mean change from baseline to week 10 [5, 6]: −0.22 | Rey Auditory Verbal Memory Trial 5, mean change from baseline to week 10 [5, 6]: 0.78 | Timed Gait, mean change from baseline to week 10 [5, 6]: -0.65 s | Grooved Pegboard Dominant Hand, Treatment Effect [5, 7]: -10.56 s | Grooved Pegboard Nondominant Hand, Treatment Effect [5, 7]: -4.53 s | Mean Reaction Time Choice, Treatment Effect [5, 7]: 5.67 ms | Mean Reaction Time Sequential, Treatment Effect [5, 7]: 29.08 ms | Timed Gait, Treatment Effect [5, 7]: -0.25 s | Composite Neuropsychological Z-score, Treatment Effect [5, 8]: 2.31 | Digit Symbol, Treatment Effect [5, 8]: 5.02 | Rey Auditory Verbal Memory Correct Recognition, Treatment Effect [5, 8]: 1.16 | Rey Auditory Verbal Memory Delayed Recall, Treatment Effect [5, 8]: 1.82 | Rey Auditory Verbal Memory Recall after Interference, Treatment Effect [5, 8]: 1.57 | Rey Auditory Verbal Memory Total, Treatment Effect [5, 8]: 2.22 | Rey Auditory Verbal Memory Trial 5, Treatment Effect [5, 8]: −0.38 | Between group differences on independent neuropsychological tests and composite z-score ([5]; impaired subjects, VPA vs placebo): not statistically significant

GRPRTTS*FAE [Pseudosubstrate peptide]
Ki (GSK-3 [1]; read-out: Inhibition potency Ki): 700 µM
